Results: PubChem BioAssay AID1745844 (Carcinogenic Potency Database (CPDB), 2022)
Several values for one entry are separate records, joined by “and”; a condition that tells them apart may be missing. Equal entries are not always repeated. Activity calls are given as the source filed them. No rule for the calls is given here.

System: rodent lifetime carcinogenesis bioassay, tumor incidence TD50
Assay: chronic cancer bioassays in animals – CPDB, compiled studies (AID 1745844)

SMILES: O=NN(CCCC(F)(F)F)CCCC(F)(F)F
- TD50 (rat, strain Sprague-Dawley, females, by gavage, site: any site (literature study), lesion: malignant tumor, dosed 32 weeks, study length 101 weeks): 0.291 mg/kg/day
- TD50 (rat, strain Sprague-Dawley, females, by gavage, site: liver, lesion: hepatocellular carcinoma, dosed 32 weeks, study length 101 weeks): 0.707 mg/kg/day
- TD50 (rat, strain Sprague-Dawley, females, by gavage, site: lung, lesion: several types, types named in the paper, dosed 32 weeks, study length 101 weeks): 1.12 mg/kg/day
- TD50 (rat, strain Sprague-Dawley, males, by gavage, site: any site (literature study), lesion: malignant tumor, dosed 32 weeks, study length 101 weeks): 0.363 mg/kg/day
- TD50 (rat, strain Sprague-Dawley, males, by gavage, site: liver, lesion: hepatocellular carcinoma, dosed 32 weeks, study length 101 weeks): 0.793 mg/kg/day
- TD50 (rat, strain Sprague-Dawley, males, by gavage, site: lung, lesion: several types, types named in the paper, dosed 32 weeks, study length 101 weeks): 0.793 mg/kg/day

SMILES: O=[O+][O-]
- TD50 (mouse, strain B6C3F1, females, inhaled, site: lung, lesion: alveolar/bronchiolar adenoma + alveolar/bronchiolar carcinoma, dosed 105 weeks, study length 105 weeks): 1.88 mg/kg/day
- TD50 (mouse, strain B6C3F1, females, inhaled, site: lung, lesion: alveolar/bronchiolar adenoma + alveolar/bronchiolar carcinoma, dosed 130 weeks, study length 130 weeks): 2.09 mg/kg/day
- TD50 (mouse, strain B6C3F1, females, inhaled, site: lung, lesion: alveolar/bronchiolar adenoma, dosed 130 weeks, study length 130 weeks): 1.78 mg/kg/day
- TD50 (mouse, strain B6C3F1, females, inhaled, site: lung, lesion: alveolar/bronchiolar carcinoma, dosed 105 weeks, study length 105 weeks): 2.75 mg/kg/day
- TD50 (mouse, strain B6C3F1, females, inhaled, site: uterus, lesion: endometrial stromal polyp, dosed 105 weeks, study length 105 weeks): 6.49 mg/kg/day
- TD50 (mouse, strain B6C3F1, males, inhaled, site: any site (literature study), lesion: several types, types named in the paper, dosed 104 weeks, study length 104 weeks): 0.997 mg/kg/day
- TD50 (mouse, strain B6C3F1, males, inhaled, site: any site (literature study), lesion: several types, types named in the paper, dosed 130 weeks, study length 130 weeks): 1.54 mg/kg/day
- TD50 (mouse, strain B6C3F1, males, inhaled, site: liver + mesentery + spleen, lesion: hemangiosarcoma, dosed 104 weeks, study length 104 weeks): 0.314 mg/kg/day
- TD50 (mouse, strain B6C3F1, males, inhaled, site: liver, lesion: hepatocellular adenoma + hepatoblastoma + hepatocellular carcinoma, dosed 104 weeks, study length 104 weeks): 1.68 mg/kg/day
- TD50 (mouse, strain B6C3F1, males, inhaled, site: liver, lesion: hepatocellular adenoma + hepatoblastoma + hepatocellular carcinoma, dosed 130 weeks, study length 130 weeks): 2.02 mg/kg/day
- TD50 (mouse, strain B6C3F1, males, inhaled, site: lung, lesion: alveolar/bronchiolar adenoma + alveolar/bronchiolar carcinoma, dosed 104 weeks, study length 104 weeks): 0.894 mg/kg/day
- TD50 (mouse, strain B6C3F1, males, inhaled, site: lung, lesion: alveolar/bronchiolar adenoma + alveolar/bronchiolar carcinoma, dosed 130 weeks, study length 130 weeks): 0.961 mg/kg/day
- TD50 (mouse, strain B6C3F1, males, inhaled, site: lung, lesion: alveolar/bronchiolar carcinoma, dosed 130 weeks, study length 130 weeks): 0.633 mg/kg/day
- carcinogen call (rat, strain Fischer 344, females, inhaled, site: any site (literature study), lesion: several types, types named in the paper, dosed 104 weeks, study length 104 weeks): negative (inactive)
- carcinogen call (rat, strain Fischer 344, females, inhaled, site: any site (literature study), lesion: several types, types named in the paper, dosed 124 weeks, study length 124 weeks): negative (inactive)
- TD50 (rat, strain Fischer 344, males, inhaled, site: any site (literature study), lesion: several types, types named in the paper, dosed 105 weeks, study length 105 weeks): 1.2 mg/kg/day
- TD50 (rat, strain Fischer 344, males, inhaled, site: any site (literature study), lesion: several types, types named in the paper, dosed 122 weeks, study length 124 weeks): 0.138 mg/kg/day (inactive)
- TD50 (rat, strain Fischer 344, males, inhaled, site: liver, lesion: hepatocellular adenoma + hepatoblastoma + hepatocellular carcinoma, dosed 122 weeks, study length 124 weeks): 2.41 mg/kg/day
- TD50 (rat, strain Fischer 344, males, inhaled, site: thyroid gland, lesion: c-cell adenoma + c-cell carcinoma, dosed 105 weeks, study length 105 weeks): 0.0156 mg/kg/day (inactive)
- TD50 (rat, strain Fischer 344, males, inhaled, site: thyroid gland, lesion: c-cell adenoma, dosed 105 weeks, study length 105 weeks): 0.019 mg/kg/day
- TD50 (rat, strain Sprague-Dawley, males, inhaled, site: lung, lesion: adenoma, dosed 86 weeks, study length 86 weeks): 0.204 mg/kg/day

SMILES: CCCC1O[C@@H]2C[C@H]3[C@@H]4CCC5=CC(=O)C=C[C@]5(C)[C@H]4[C@@H](O)C[C@]3(C)[C@]2(C(=O)CO)O1 (some centres undefined)
- TD50 (rat, strain Charles River CD (Sprague-Dawley), males, in drinking water, site: liver, lesion: hepatocellular adenoma, dosed 104 weeks, study length 104 weeks): 0.491 mg/kg/day
- TD50 (rat, strain Charles River CD (Sprague-Dawley), males, in drinking water, site: liver, lesion: hepatocellular carcinoma, dosed 104 weeks, study length 104 weeks): 0.822 mg/kg/day
- TD50 (rat, strain Charles River CD (Sprague-Dawley), males, in drinking water, site: liver, lesion: several types, types named in the paper, dosed 104 weeks, study length 104 weeks): 0.291 mg/kg/day

SMILES: NC(=O)CCCCC(N)=O
- carcinogen call (mouse, strain C57BL/6, females, in feed, site: liver, lesion: hepatocellular carcinoma, dosed 52 weeks, study length 69 weeks): negative (inactive)
- TD50 (mouse, strain C57BL/6, females, in feed, site: lung, lesion: alveolar/bronchiolar adenoma, dosed 52 weeks, study length 69 weeks): 8550 mg/kg/day (inactive)
- carcinogen call (mouse, strain C57BL/6, males, in feed, site: liver, lesion: hepatocellular carcinoma, dosed 52 weeks, study length 69 weeks): negative (inactive)
- carcinogen call (mouse, strain C57BL/6, males, in feed, site: lung, lesion: alveolar/bronchiolar adenoma, dosed 52 weeks, study length 69 weeks): negative (inactive)
- carcinogen call (rat, strain Fischer 344, females, in feed, site: liver, lesion: one or several types, types not named, dosed 52 weeks, study length 69 weeks): negative (inactive)
- TD50 (rat, strain Fischer 344, males, in feed, site: liver, lesion: hepatocellular carcinoma, dosed 52 weeks, study length 69 weeks): 6420 mg/kg/day

SMILES: Cc1c(N)cccc1N
- TD50 (mouse, strain B6C3F1, females, in feed, site: any site (literature study), lesion: several types, types named in the paper, dosed 103 weeks, study length 105 weeks): 75.9 mg/kg/day
- TD50 (mouse, strain B6C3F1, females, in feed, site: liver, lesion: hepatocellular adenoma + hepatocellular carcinoma + neoplastic nodule, dosed 103 weeks, study length 105 weeks): 129 mg/kg/day
- TD50 (mouse, strain B6C3F1, females, in feed, site: liver, lesion: hepatocellular carcinoma, dosed 103 weeks, study length 105 weeks): 181 mg/kg/day (inactive)
- TD50 (mouse, strain B6C3F1, males, in feed, site: all sites, lesion: lymphoma, dosed 103 weeks, study length 104 weeks): 20.5 mg/kg/day (inactive)
- carcinogen call (rat, strain Fischer 344, females, in feed, site: any site (literature study), lesion: several types, types named in the paper, dosed 103 weeks, study length 105 weeks): negative (inactive)
- TD50 (rat, strain Fischer 344, females, in feed, site: liver, lesion: hepatocellular adenoma + hepatocellular carcinoma + neoplastic nodule, dosed 103 weeks, study length 105 weeks): 455 mg/kg/day
- TD50 (rat, strain Fischer 344, males, in feed, site: liver, lesion: hepatocellular adenoma + hepatocellular carcinoma + neoplastic nodule, dosed 103 weeks, study length 104 weeks): 117 mg/kg/day
- TD50 (rat, strain Fischer 344, males, in feed, site: liver, lesion: hepatocellular carcinoma + neoplastic nodule, dosed 103 weeks, study length 104 weeks): 117 mg/kg/day (inactive)
- TD50 (rat, strain Fischer 344, males, in feed, site: pancreatic islets, lesion: islet-cell adenoma, dosed 103 weeks, study length 104 weeks): 140 mg/kg/day

SMILES: CC(O)CN(CCO)N=O (centres undefined)
- TD50 (rat, strain Fischer 344, females, in drinking water, site: esophagus, lesion: several types, types named in the paper, dosed 50 weeks, study length 75 weeks): 6.74 mg/kg/day
- TD50 (rat, strain Fischer 344, females, in drinking water, site: liver, lesion: angiosarcoma, dosed 50 weeks, study length 75 weeks): 4.5 mg/kg/day
- TD50 (rat, strain Fischer 344, females, in drinking water, site: liver, lesion: hepatocellular carcinoma, dosed 50 weeks, study length 75 weeks): 1.02 mg/kg/day
- TD50 (rat, strain Fischer 344, females, in drinking water, site: liver, lesion: several types, types named in the paper, dosed 50 weeks, study length 75 weeks): 1.12 mg/kg/day
- TD50 (rat, strain Fischer 344, females, in drinking water, site: nasal cavity, lesion: olfactory carcinoma, dosed 50 weeks, study length 75 weeks): 5.44 mg/kg/day

SMILES: Nc1ccc(-c2ccc(N)c(N)c2)cc1N
- TD50 (mouse, strain CD-1 HaM/ICR, females, in feed, site: any site (literature study), lesion: several types, types named in the paper, dosed 77 weeks, study length 98 weeks): 599 mg/kg/day (inactive)
- TD50 (mouse, strain CD-1 HaM/ICR, females, in feed, site: liver, lesion: several types, types named in the paper, dosed 77 weeks, study length 98 weeks): 1690 mg/kg/day (inactive)
- TD50 (mouse, strain CD-1 HaM/ICR, females, in feed, site: lung, lesion: several types, types named in the paper, dosed 77 weeks, study length 98 weeks): 1030 mg/kg/day (inactive)
- TD50 (mouse, strain CD-1 HaM/ICR, males, in feed, site: any site (literature study), lesion: several types, types named in the paper, dosed 77 weeks, study length 94 weeks): 224 mg/kg/day
- TD50 (mouse, strain CD-1 HaM/ICR, males, in feed, site: liver, lesion: several types, types named in the paper, dosed 77 weeks, study length 94 weeks): 4170 mg/kg/day (inactive)
- TD50 (mouse, strain CD-1 HaM/ICR, males, in feed, site: lung, lesion: several types, types named in the paper, dosed 77 weeks, study length 94 weeks): 288 mg/kg/day
- TD50 (rat, strain Charles River CD (Sprague-Dawley), males, in feed, site: any site (literature study), lesion: several types, types named in the paper, dosed 77 weeks, study length 107 weeks): 200 mg/kg/day
- TD50 (rat, strain Charles River CD (Sprague-Dawley), males, in feed, site: liver, lesion: hepatoma, dosed 77 weeks, study length 107 weeks): 395 mg/kg/day
- TD50 (rat, strain Charles River CD (Sprague-Dawley), males, in feed, site: liver, lesion: several types, types named in the paper, dosed 77 weeks, study length 107 weeks): 259 mg/kg/day

SMILES: CC(C)CCC[C@@H](C)[C@H]1CC[C@H]2[C@@H]3CC=C4C[C@@H](OC(=O)Cc5ccc(N(CCCl)CCCl)cc5)CC[C@]4(C)[C@H]3CC[C@]12C
- TD50 (mouse, strain B6C3F1, females, by gavage, site: all sites + lung + myocardium, lesion: leukemia + lymphoma + alveolar/bronchiolar adenoma + alveolar/bronchiolar carcinoma + sarcoma, NOS, dosed 70 weeks, study length 83 weeks): 0.211 mg/kg/day
- TD50 (mouse, strain B6C3F1, females, by gavage, site: all sites, lesion: hemangiosarcoma, dosed 70 weeks, study length 83 weeks): 1.52 mg/kg/day
- TD50 (mouse, strain B6C3F1, females, by gavage, site: all sites, lesion: leukemia + lymphoma, dosed 70 weeks, study length 82 weeks): 2.07 mg/kg/day
- TD50 (mouse, strain B6C3F1, females, by gavage, site: all sites, lesion: leukemia + lymphoma, dosed 70 weeks, study length 83 weeks): 0.652 mg/kg/day
- TD50 (mouse, strain B6C3F1, females, by gavage, site: any site (literature study), lesion: several types, types named in the paper, dosed 70 weeks, study length 83 weeks): 0.183 mg/kg/day
- TD50 (mouse, strain B6C3F1, females, by gavage, site: lung, lesion: alveolar/bronchiolar adenoma + alveolar/bronchiolar carcinoma, dosed 70 weeks, study length 83 weeks): 0.416 mg/kg/day
- TD50 (mouse, strain B6C3F1, females, by gavage, site: myocardium, lesion: sarcoma, NOS, dosed 70 weeks, study length 83 weeks): 0.951 mg/kg/day
- TD50 (mouse, strain B6C3F1, females, by gavage, site: ovary, lesion: tubular adenoma, dosed 70 weeks, study length 83 weeks): 0.912 mg/kg/day
- TD50 (mouse, strain B6C3F1, males, by gavage, site: all sites + lung + myocardium, lesion: leukemia + lymphoma + alveolar/bronchiolar adenoma + alveolar/bronchiolar carcinoma + sarcoma, NOS, dosed 64 weeks, study length 81 weeks): 0.757 mg/kg/day
- TD50 (mouse, strain B6C3F1, males, by gavage, site: all sites, lesion: hemangiosarcoma, dosed 64 weeks, study length 81 weeks): 6.15 mg/kg/day
- TD50 (mouse, strain B6C3F1, males, by gavage, site: all sites, lesion: leukemia + lymphoma, dosed 64 weeks, study length 81 weeks): 2.13 mg/kg/day and 1.89 mg/kg/day
- TD50 (mouse, strain B6C3F1, males, by gavage, site: any site (literature study), lesion: several types, types named in the paper, dosed 64 weeks, study length 81 weeks): 0.728 mg/kg/day
- TD50 (mouse, strain B6C3F1, males, by gavage, site: liver, lesion: hepatocellular adenoma + hepatocellular carcinoma + neoplastic nodule, dosed 64 weeks, study length 81 weeks): 32.9 mg/kg/day
- TD50 (mouse, strain B6C3F1, males, by gavage, site: lung, lesion: alveolar/bronchiolar adenoma + alveolar/bronchiolar carcinoma, dosed 64 weeks, study length 81 weeks): 1.19 mg/kg/day
- TD50 (mouse, strain B6C3F1, males, by gavage, site: lung, lesion: alveolar/bronchiolar carcinoma, dosed 64 weeks, study length 81 weeks): 2.05 mg/kg/day
- TD50 (mouse, strain B6C3F1, males, by gavage, site: myocardium, lesion: sarcoma, NOS, dosed 64 weeks, study length 81 weeks): 3.87 mg/kg/day and 6.28 mg/kg/day
- TD50 (rat, strain Sprague-Dawley, females, by gavage, site: any site (literature study), lesion: several types, types named in the paper, dosed 52 weeks, study length 85 weeks): 0.271 mg/kg/day
- TD50 (rat, strain Sprague-Dawley, females, by gavage, site: mammary gland, lesion: adenocarcinoma, NOS, dosed 52 weeks, study length 85 weeks): 0.523 mg/kg/day
- TD50 (rat, strain Sprague-Dawley, males, by gavage, site: all sites, lesion: leukemia + lymphoma, dosed 52 weeks, study length 84 weeks): 2.73 mg/kg/day (inactive)
- TD50 (rat, strain Sprague-Dawley, males, by gavage, site: any site (literature study), lesion: several types, types named in the paper, dosed 52 weeks, study length 84 weeks): 0.481 mg/kg/day (inactive)
